From US7345037B2, “Nitrosated and nitrosylated compounds and compositions and their use for treating respiratory disorders” (Nitromed, Inc., priority 1996, dated 2008)

Key:
[1] = system: acute bronchoconstriction and late bronchial obstruction after inhalation challenge with Ascaris Suum; assay: Ascaris suum-induced immediate and late bronchial response (mean lung resistance sR1) in allergic conscious sheep; format: in vivo; conditions: for protection of the immediate response / protection of the peak late response: 500 μg aerosolized 30 minutes prior to ascaris suum challenge, referenced to historical controls, n=3
Excerpt: (§1) The measurement of biological activity in a pulmonary model of allergic asthma and lung inflammation was undertaken in adult conscious sheep. The methodology was essentially as described by W. M. Abraham et al. (Bull. Eur. Physiopathol. Respir., 22, 387 (1986)). Adult sheep with a natural cutaneous reaction to Ascaris Suum extract and who respond to inhalation challenge with Ascaris Suum with both an acute bronchoconstriction and a late bronchial obstruction were used in the study.
Unsedated sheep were intubated and measurement of airway mechanics were computed and recorded on a digital computer utilizing inputs of transpulmonary pressure and tracheal airflow recordings. Each animal was exposed to an aerosol of ascaris suum, diluted to produce an immediate and significant increase in mean lung resistance (sR1) of approximately 600-700% above baseline. […] This second response is known as the late response. sR1 returned to baseline by 24 hours. Each animal was exposed to an aerosol of ascaris suum at a minimum of two week interval. […]
(§2) Each test drug was aerosolized to an animal 30 minutes prior to challenge with ascaris suum.

[2] = system: airway responsiveness to aerosolized carbachol after exposure to ascaris suum; assay: Airway responsiveness to aerosolized carbachol (PC150) before and after Ascaris suum challenge in allergic conscious sheep; format: in vivo; conditions: 500 μg aerosolized, PC150 of carbachol 24 hours prior to and 24 post ascaris suum exposure, closer to unity is better
Excerpt: as §1
Airway responsiveness was measured by calculation of a PC150 value. The PC150 is the dose of aerosolized carbachol which produces a 150% increase in sR1 above baseline. The doses of carbachol were administered in an ascending dose-response fashion with each dose being administered for a 10 breath duration. The PC150 value was determined for each animal 24 hours prior to exposure to ascaris suum and again 24 post exposure. The difference in PC150 values represented a change in airway responsiveness. The closer the post challenge to prechallenge ratio to unity the better the effect of the particular compound.
as §2

Compound: 6α-Fluoro-11β-hydroxy-16α,17-((1-methylethylidene)bis(oxy))pregna-1,4-diene-3,20-dione-21-(3-methyl-3-nitrosothio)-butanoate [Example 1]
- protection of the immediate response [1]: 59±14%
- protection of the peak late response [1]: 89±2%
- protection against lung function changes due to aerosol challenge of ascaris suum ([1]; overall comparison with the parent steroid): better protection
- post challenge/prechallenge ratio of PC150 values (airway hyperresponsiveness) [2]: 1.18±0.06

Compound: CC1(C)O[C@@H]2C[C@H]3[C@@H]4C[C@H](F)C5=CC(=O)C=C[C@]5(C)[C@H]4[C@@H](O)C[C@]3(C)[C@]2(C(=O)CO)O1 [6α-Fluoro-11β, 21-dihydroxy-16α, 17α-((1-methylethylidene)bis(oxy))pregna-1,4-diene-3,20-dione, reference compound]
- protection of the immediate response [1]: 16±21%
- protection of the peak late response [1]: 83±7%
- post challenge/prechallenge ratio of PC150 values (airway hyperresponsiveness) [2]: 0.98±0.10
